In experiment [1] the test system is 12ca5. As to the kind of experiment: Affinity selection from 10^8-member library against 12ca5 with exogenous competitor. The conditions noted are these: 10 pM/member, 0.13 nmol 12ca5.
The test system of another experiment is anti-HA mAb clone 12ca5. As to the kind of experiment: Competition fluorescence polarization of HA epitope and analogues. The conditions noted are these: for IC50: competition FP, 100 nM 12ca5, 28 nM YPYDVPDYAK(FITC)-CONH2, 1 mg/mL BSA, 0.02% Tween 20, 1x PBS, RT, read after 1 h; for Kd: from competition FP, 100 nM 12ca5, 28 nM FITC tracer. Type of experiment: binding. Here is the method: Competition fluorescence polarization of HA epitope and analogues:
Solutions of unlabeled peptides (~1 mg/mL each; Supplementary Table 1) in 1x PBS was prepared in the presence of 100 nM 12ca5, 1 mg/mL BSA, 0.02% Tween 20 (120 μL). Fluorescent competitor was added (YPYDVPDYAK(FITC)α-CONH2; 28 nM).
The resulting solution was diluted serially (20 μL) into 100 nM 12ca5, 28 nM […]
YPYDVPDYAK(FITC)α-CONH2, 1 mg/mL BSA, 0.02% Tween 20 in 1x PBS (80 μL; […]
5-fold dilutions). The resulting solutions were transferred to a 96 well plate (Greiner Bio- […]
(RT), and read after 1 h on a Tecan Infinite M1000 plate reader (470 nm excitation; 517 nm detection; 5 nm bandwidth). The concentration of fluorescent […] was determined based on absorbance at 490 nm, using ε = 76,900 M-1cm-1.
Competition fluorescence polarization of HA epitope Ala scan mutants:
Competition fluorescence polarization experiments were carried out as described in Competition fluorescence polarization of HA epitope and analogues.
For orientation: Polarisation of emitted light reports the rotation of a fluorescent probe.

Experiment [2] has as its system 12ca5. As to the kind of experiment: Magnetic bead affinity capture of 12ca5-binding peptides, recovery by nLC-MS. Also on record: species or system mouse. As for the experimental part:
Identification of binders from high-diversity libraries would necessitate their efficient recovery at high dilution. To assess the utility of magnetic bead-based affinity capture for this purpose, we investigated the recovery of a number of peptide binders with varying affinity for anti-HA mAb clone 12ca5 (12ca5), which recognizes the linear motif DXXDYA (Supplementary Figs. 1–6; Supplementary Table 1). In these experiments, streptavidin-coated magnetic beads (1 mg; 0.13 nmol IgG binding capacity) functionalized with biotinylated 12ca5 were incubated with mixtures of 12ca5-binding peptides (either 1 nM/peptide, 100 pM/peptide, or 10 pM/peptide; 1 mL scale). The magnetic beads were isolated, washed with buffer, and treated with chemical denaturant to elute bound peptides. A portion of this eluate (~2%) was subjected to nLC-MS analysis, and recovery was quantified using normalized MS response. To calculate recovery, a separate dose-response curve was generated for each peptide, since their MS responses varied by ~5-fold (Supplementary Fig. 7). […]

Non-standard residues stand in square brackets, D forms with d. Residues, ends and D or L forms follow the SMILES beside them.

For orientation: IC50 means the concentration needed to halve the response being measured. Usually Kd stands for the constant that tells how readily two partners part at equilibrium. Higher therefore signals a looser complex. With `NCC(=O)N[C@H](Cc1ccc(O)cc1)C(=O)N1CCC[C@@H]1C(=O)N[C@H](Cc1ccc(O)cc1)C(=O)N[C@H](CCC(=O)O)C(=O)N[C@H](Cc1ccc(O)cc1)C(=O)N[C@H](CC(=O)O)C(=O)N[C@H](Cc1c[nH]c2ccccc12)C(=O)N[C@H](CCC(=O)O)C(N)=O` [Gypyeydwe, reference compound] (H-G[dY][dP][dY][dE][dY][dD][dW][dE]-NH2), the “competitor concentration required to attenuate the recovery of DXXDY(A/S) peptides” value with 12ca5 [1] is reported as 100 µM. For the same compound, in the experiment on anti-HA mAb clone 12ca5, the IC50 was 62000 ± 8000 nM and binding was put at a Kd of 3000 nM.

In the experiment on anti-HA mAb clone 12ca5, `C[C@H](NC(=O)[C@H](Cc1ccc(O)cc1)NC(=O)[C@H](CC(=O)O)NC(=O)[C@H](CCC(=O)O)NC(=O)[C@H](Cc1ccc(O)cc1)NC(=O)[C@H](CC(=O)O)NC(=O)[C@@H](N)Cc1ccccc1)C(=O)N[C@@H](CCC(=O)O)C(=O)N[C@@H](Cc1c[nH]c2ccccc12)C(=O)N[C@@H](CCCCN)C(N)=O` [FDYEDYAEWK] (H-FDYEDYAEWK-NH2) showed an IC50 of 590 ± 190 nM and a Kd of 25 ± 13 nM. For the same compound, the recovery in the experiment with 12ca5 [2] (1 mg 12ca5-functionalized beads, 1 mL, 1 nM to 10 pM/peptide, 1 h 4 °C, 3 PBS washes (~6 min), normalized MS response) stood at 33%. Moreover, the “recovery expected based on measured dissociation rate” value in the experiment on 12ca5 [2] (based on koff = 3.0 × 10^−3 s^−1 and total wash time of ~6 min) is listed as 34%.

Values taken from paper PMC7311396, “Ultra-large chemical libraries for the discovery of high-affinity peptide binders” (Nature Communications, 2020).
